# According to PMC10349804, “Natural resveratrol analogs differentially target endometriotic cells into apoptosis pathways” (Scientific Reports, 2023):
# Several values for one entry are separate records, joined by “and”; a condition that tells them apart may be missing. Equal values may be shown once.
# Assays:
# [1] = test system: endometrial stromal T HESC cells; experiment: MTT reduction assay, cell viability; format: cell-based, human; conditions: for IC50: Homo sapiens; for IC50 / IC10: T HESC cells, 48-h incubation, MTT
# Experimental: (§1) The effect of resveratrol and its natural analogs on the viability of endometriotic epithelial 12Z cells and endometrial stromal T HESC cells was assessed using the MTT assay. Table 1 presents the IC10 and IC50 values (the inhibitor concentration required for 10% and 50% reduction in […]) obtained after 48-h incubation with the tested compounds. […] The cytotoxicity of resveratrol and pterostilbene to 12Z cells was not markedly different. T HESC and 12Z cells varied in susceptibility to the treatment with stilbenes tested, as evidenced by the cytotoxic doses shown in Table 1. […] Similarly, resveratrol evoked much weaker cytotoxic effects in T HESC cells than in 12Z cells. Polydatin at concentrations up to 400 µM was not cytotoxic to the T HESC cells, while at a dose of 86.76 µM, it induced the first cytotoxic symptoms in 12Z cells. […] The increased susceptibility of endometriotic 12Z cells than endometrial T HESC cells to resveratrol and its natural analogs was consistent in both assays (Fig. 1).
# (§2) The immortalized human endometriotic epithelial cells (12Z), derived from peritoneal endometriosis lesions, were obtained from Applied Biological Materials Inc. (Richmond, Canada). The 12Z cells were cultured in Dulbecco's Modified Eagle Medium/Nutrient Mixture F-12 (DMEM/F12), containing 10% fetal bovine serum (FBS) and 50 mg/L gentamycin. American Type Culture Collection (ATCC, Manassas, VA, USA) was the source for human endometrial stromal cells immortalized by telomerase (T HESC, CRL-4003). The cells were maintained routinely in phenol red-free DMEM/F12 supplemented with 10% charcoal/dextran treated FBS, 1% ITS + 1, and 50 mg/L gentamycin, at 37 °C and 5% CO2. Both cell lines were negative for mycoplasma contamination; mycoplasma-free cells were confirmed repeatedly during the study.
# (§3) Cells were seeded at a density of 0.15 × 10^5 cells/cm^2 in 6-well plates. The 24-h cell cultures were treated with resveratrol and its derivatives for 48 h under standard culture conditions. Camptothecin was applied as a reference apoptosis inducer; its final concentrations were set to 5 µM and 50 µM.
# (§4) Cell viability and metabolic activity were determined using the MTT colorimetric assay, according to the protocol described in previous studies. Based on the obtained data, the dose–response curves were plotted, and inhibitory concentrations (IC) were calculated. In addition, cell proliferation was measured using the alamarBlue™ Cell Viability Reagent (Invitrogen, Carlsbad, CA, USA) according to the manufacturer's protocol. Fluorescence was measured using a Tecan M200 Infinite microplate reader (Tecan Group Ltd., Männedorf, Switzerland).
# [2] = test system: endometriotic epithelial 12Z cells; experiment: MTT reduction assay, cell viability; format: cell-based, human; conditions: for IC10 / IC50: 12Z cells, 48-h incubation; for IC50: Homo sapiens
# Experimental: as §1, §2, §3, §4
# endometriotic 12Z cells [3] = experiment: TUNEL assay of DNA fragmentation, flow cytometry; format: cell-based, human; conditions: 48 h
# Experimental: Cell death via apoptosis in 12Z cells after exposure to resveratrol and its natural derivatives was determined by detecting DNA fragmentation (Fig. 5). DNA degradation was correlated in a dose-dependent manner. […] Tunel-positive cell population in the 12Z cell culture treated with camptothecin was estimated at 32.5%, compared to 0.6% in the vehicle-treated control culture.
# The detection of DNA fragmentation in 12Z cells was performed using the terminal deoxynucleotidyl-transferase-mediated dUTP nick end labeling (TUNEL) assay with In Situ Cell Death Detection Kit (Roche Diagnostics, Indianapolis, IN, USA). The test detects DNA breakage that is identified by terminal deoxynucleotidyl transferase. After treatment, the harvested cells were fixed in 4% paraformaldehyde and permeabilized in 0.1% Triton X-100. After washing in PBS, cells were subjected to TUNEL labeling with fluorescein-labeled dUTP and terminal deoxynucleotidyl transferase mixture. Cells were analyzed by flow cytometry using an Amnis™ FlowSight™ flow cytometer.
# caspases-3/7 = experiment: APO-One Homogenous Caspase-3/7 Assay in 12Z cells; format: cell-based, human
# Experimental: Resveratrol evoked a dose-dependent caspase-3/7 activation in 12Z cells (F = 2467.29, p < 0.0001). […] It was consistent with the results of CASP3 gene expression activation. […] There was a 2.8-fold activation of caspase 3/7 enzymes following treatment with piceatannol at a 200 μM dose, which complies with the CASP3 mRNA expression level.
# To quantitate the proteolytic activity of caspase 3 and 7, we performed an assay based on the proteolytic cleavage of the C-terminal side of the aspartate residue in the DEVD peptide substrate by caspase 3/7 and into the fluorescent rhodamine 110. Caspase 3/7 activity was determined using the APO-One Homogenous Caspase-3/7 Assay (Promega Corporation, Wisconsin, USA) following the manufacturer's instructions. The obtained data were normalized to cellular protein content. The total protein was quantified by BCA assay (Pierce® BCA Protein Assay Kit, Thermo Scientific Inc., USA) according to the manufacturer's protocol.
# endometriotic 12Z cells [4] = experiment: Annexin V/PI double staining, flow cytometry; format: cell-based, human; conditions: 50 µM, 100 µM, 200 µM, 48 h
# Experimental: After treating endometriotic 12Z cells with stilbenes, the phosphatidylserine externalization was measured by Annexin V and PI double staining (Fig. 4A). Examples of the single-cell images from sub-populations: live cells (Annexin V/PI-double negative), early apoptotic cells (Annexin V-positive/PI-negative), late apoptotic cells (Annexin V/PI-double positive), necrotic cells (Annexin V-negative/PI-positive) are presented in Fig. 4B.
# Figure 4 Flow cytometry analysis of endometriotic 12Z cells stained with PI and FITC-Annexin V. Cells were treated with resveratrol, pterostilbene, piceatannol, polydatin and their vehicle (0.5% ethanol) for 48 h. Camptothecin was used as a positive control. (A) Representative images of each distinct cellular subset. n = 4; scale bars = 20 μm. (B) Representative flow cytometry dot plots. (C) Summary of FITC-Annexin V and PI stained populations in 12Z cell cultures. […] The results are presented as means ± SD. *p < 0.05, **p < 0.01, ***p < 0.001 compared to vehicle control.
# Apoptosis was determined by Annexin V and propidium iodide (PI) double staining with the FITC Annexin V Apoptosis Detection kit (BD Pharmingen, Heidelberg, Germany) by flow cytometry according to the manufacturer's instructions. […] The cells were analyzed with an Amnis™ FlowSight™ flow cytometer (Luminex Corporation, TX, USA). […]
# [5] = test system: BAX, FAS, CASP3, CASP8, and CASP9 genes; experiment: Real-time PCR, proapoptotic gene panel in 12Z cells; format: cell-based, human
# Description: (§5) Figure 7 Effect of resveratrol and its analogs on the mRNA expression of BCL2, BCL2L1, BAX, FAS, CASP3, CASP8, and CASP9 genes in endometriotic 12Z cells, assessed by real-time PCR. Data were normalized against β-actin and expressed as relative mRNA expression (-fold of control). The values represent the means (n = 3) ± SD. Significant differences *p < 0.05; **p < 0.01; ***p < 0.001 compared to vehicle control.
# The FAS overexpression depended on the concentration of stilbenes, reaching a relative expression up to tenfold higher in treated endometriotic cells. The role of proteases in resveratrol-, pterostilbene-, and piceatannol-induced apoptosis was also indicated by the upregulation of well-known initiator caspases of the mitochondrial and death receptor apoptotic pathways such as caspases 8, 9 and executioner caspase 3 (Fig. 7).
# Gene expression analysis was carried out according to the previously described protocol. TRI reagent was applied for total RNA isolation, synthesis cDNA Transcriptor First-Strand kit (Roche Diagnostics GmbH, Mannheim, Germany) for first-strand cDNA synthesis, and SYBR® Select Master Mix (Life Technologies, Carlsbad, CA, USA) for real-time PCR. […] Relative mRNA expression was shown as fold change calculated using the 2^−ΔΔCt method compared with control cells.
# endometriotic 12Z cells [6] = experiment: Cell cycle analysis by PI staining, flow cytometry; format: cell-based, human; conditions: 100 µM, 48 h
# Experimental: To investigate whether resveratrol and its analogs have interfered with cell cycle progression in endometriotic 12Z cells, we analyzed the cell cycle distribution by flow cytometry. […] The largest subpopulation of apoptotic cells was found in the cell cultures treated with resveratrol and pterostilbene at the concentration of 100 µM (31.2 ± 8.0% and 33.1 ± 9.7%, respectively) and piceatannol at a concentration of 200 µM (45.1 ± 5. 6%).
# Cell cycle progression was analyzed by flow cytometry using PI staining. After treatment, 12Z cells were collected, washed with PBS, and fixed in 70% ethanol. The cells were then washed, resuspended in PBS, and stained with 50 μg/ml PI in the presence of 100 μg/ml RNase A. Cell cycle distribution was analyzed using a FACSCanto flow cytometer (Becton Dickinson, San Jose, CA, USA). Data analysis was performed with the FACS Diva software (Becton Dickinson).
# BAX gene = experiment: Real-time PCR, BAX mRNA expression in 12Z cells; format: cell-based, human; conditions: 50 µM, fold of control, normalized against β-actin
# Description: The effect of resveratrol and its natural analogs on the expression of pro- or antiapoptotic regulators, was examined by real-time PCR. […] BAX overexpression was also documented in 12Z cells exposed to resveratrol.
# as §5
# Gene expression analysis was carried out according to the previously described protocol. TRI reagent was applied for total RNA isolation, synthesis cDNA Transcriptor First-Strand kit (Roche Diagnostics GmbH, Mannheim, Germany) for first-strand cDNA synthesis, and SYBR® Select Master Mix (Life Technologies, Carlsbad, CA, USA) for real-time PCR. The levels of transcripts were normalized using β-actin as an internal control, which was previously applied in 12Z cells. Relative mRNA expression was shown as fold change calculated using the 2^−ΔΔCt method compared with control cells.
# CASP3 gene = experiment: Real-time PCR, caspase-3 mRNA expression in 12Z cells; format: cell-based, human; conditions: concentration not given
# Description: as §5
# We analyzed the activation of caspases at the molecular and cellular levels. […] Caspase 3 expression in pterostilbene-induced apoptosis in endometriotic cells was much weaker, even though this compound generated the most significant number of DNA strand breaks. […] It has now been recognized that in response to apoptotic stimuli, mitochondria can also release caspase-independent cell death effectors such as apoptosis-inducing factor (AIF) and endonuclease G. Following release and translocation to the nucleus, AIF becomes an active executioner of the cell death by the initiation of large-scale DNA fragmentation^37. It is essential to realize that apoptosis evolved complex death pathways, which overlap with each other. […]
# Gene expression analysis was carried out according to the previously described protocol. […] Relative mRNA expression was shown as fold change calculated using the 2^−ΔΔCt method compared with control cells.
# epithelial 12Z cells = test system: epithelial 12Z cells; design: method as in PMID 35361545; conditions: 100 µM, 48-h treatment; cited from earlier work
# [7] = test system: endometrial stromal St-T1b cells; design: method as in PMID 35361545; conditions: 100 µM, 48-h treatment; cited from earlier work
# [8] = test system: endometrial stromal cells derived from patients with endometriosis; design: method as in PMID 33083332, PMID 26782781; conditions: cited from earlier work
SMILES,IC50 [1],IC10 [1],IC10 [2],IC50 [2],DNA strand breaks (TUNEL-positive cells) (endometriotic 12Z cells [3]; 100 µM),caspase-3/7 activity increase (caspases-3/7; 200 µM),cytotoxicity to T HESC cells ([1]; concentrations up to 400 µM),apoptosis stage induced (Annexin V/PI) (endometriotic 12Z cells [4]),DNA strand breaks (TUNEL-positive cells) (endometriotic 12Z cells [3]; concentration not given),"mRNA transcripts of BAX, FAS, CASP3, CASP8, and CASP9 genes [5]",caspase 3/7 activity change (caspases-3/7; concentration not given),"cytotoxicity in 12Z versus T HESC cells, comparing IC50 values ([2]; 48 h)","subpopulation of apoptotic cells (lower DNA content, subG1) (endometriotic 12Z cells [6])",BAX mRNA expression increase (BAX gene),caspase-3 mRNA expression upregulation (CASP3 gene),caspase-3/7 activity increase (caspases-3/7; 100 µM),reduction of cell viability (epithelial 12Z cells),reduction of cell viability [7],endometriotic stromal cell viability (reduced to) ([8]; 200 μM),"influence on viability of endometrial stromal cells ([8]; concentrations up to 100 μM, 48-h treatment)"
"Oc1cc(O)cc(C=Cc2ccc(O)c(O)c2)c1 [Piceatannol, 3,3′,4,5′-tetrahydroxystilbene]",364 ± 17 µM,222.68 ± 14.49 ^# µM,167.50 ± 11.36 µM,224 ± 6.47 µM,49.6% and ~50%,2.8 fold,–,–,–,–,–,–,–,–,–,–,–,–,–,–
"OC[C@H]1O[C@@H](Oc2cc(O)cc(/C=C/c3ccc(O)cc3)c2)[C@H](O)[C@@H](O)[C@@H]1O [Polydatin, 3,4′,5-trihydroxystilbene-3-β-D-glucoside]",> 400 µM,> 400 µM,86.76 µM and 86.76 ± 10.01 µM,243 ± 22.5 µM,–,–,not cytotoxic,increased population of early apoptosis cells without induction of late apoptosis,1.08%,did not significantly increase,not significantly changed,–,–,–,–,–,–,–,–,–
"CC[C@@]1(O)C(=O)OCc2c1cc1n(c2=O)Cc2cc3ccccc3nc2-1 [camptothecin, reference compound]",–,–,–,–,–,–,–,–,32.5%,–,–,–,–,–,–,–,–,–,–,–
Oc1ccc(/C=C/c2cc(O)cc(O)c2)cc1 [Resveratrol],251 ± 1.58 µM,160.35 ± 7.05 µM,8.99 ± 4.29 µM,49.3 ± 11.4 µM,42.8%,–,–,–,–,–,–,fivefold higher,31.2 ± 8.0%,approximately sevenfold,7.3 fold,10.3 fold,45.4%,49.2%,approximately 50%,did not influence the viability
